Active and inactive are the calls of the source. The calls are words filed in the database; no cut-off is given here.
Tests used:
SARS-CoV [1] = assay: microbe, parasite or virus in culture; conditions: Severe acute respiratory syndrome-related coronavirus, Frankfurt1, Vero
in vitro = conditions: chlorocebus sabaeus, Vero E6 cells
SARS-CoV [2] = assay type: functional, organism-based; conditions: Severe acute respiratory syndrome-related coronavirus; Frankfurt1; Vero; 50 to 70 uM
SARS-CoV [3] = assay type: functional, organism-based; conditions: Severe acute respiratory syndrome-related coronavirus; Frankfurt1; Vero; 20 uM
Vero = conditions: chlorocebus sabaeus

Row | Compound | IC50 (SARS-CoV [1]) [µM] | CC50 (in vitro) [µM] | other results
1 | COc1ncnc2c1ncn2[C@@H]1O[C@H](CO)[C@@H](O)[C@H]1O | > 300 |  | 
2 | NC(=O)c1ncn([C@@H]2O[C@H](CO)[C@@H](O)[C@H]2O)c1O [MIZORIBINE] | 13.5 | > 700 | 
3 | CSc1ncnc2c1ncn2[C@@H]1O[C@H](CO)[C@@H](O)[C@H]1O | > 300 |  | 
4 | OCC1C(COCc2ccccc2)CC1n1cnc2c(Cl)ncnc21 (stereo not given) | 14.5 | 78 | Activity (SARS-CoV [2]): Active
5 | OCC1CC(n2cnc3c(Cl)ncnc32)C1CO (stereo not given) | > 300 |  | 
6 | O[C@@H]1[C@H](O)[C@@H](COCc2ccccc2)O[C@H]1n1cnc2c(Cl)ncnc21 | 108 | 174 | Activity (SARS-CoV [2]): Active
7 | OC[C@@H]1C[C@@H](O)[C@H](n2cnc3c(Cl)ncnc32)O1 | > 300 |  | 
8 | NC(=O)c1ncn([C@@H]2O[C@H](CO)[C@@H](O)[C@H]2O)n1 [RIBAVIRIN] | 82 | > 850 | 
9 | OCC(CCn1cnc2c(Cl)ncnc21)COCc1ccccc1 (stereo not given) | > 300 |  | 
10 | OC[C@H]1O[C@@H](n2cnc3c(Cl)ncnc32)[C@H](O)[C@@H]1O |  |  | Activity (SARS-CoV [3]): Active; CC50 (Vero): 279 µM
11 | OCC(CO)CCn1cnc2c(Cl)ncnc21 | > 300 |  | 
12 | Nc1nc(Cl)c2ncn([C@@H]3O[C@H](CO)[C@@H](O)[C@H]3O)c2n1 | > 300 |  | 
13 | OC[C@H]1O[C@@H](n2cnc3c(Cl)ncnc32)C[C@@H]1O | > 300 |  | 
